Source: patent publication US9132118B2, “Taxane analogs for the treatment of brain cancer” (Tapestry Pharmaceuticals, Inc., priority 2007, dated 2015)
“Also recorded” adds a separate entry of the source.

Legend:
[1] = system: human tumor xenografts; test: Efficacy of oral or iv S-(1) in mouse xenografts; assay type: in vivo, nude mice; details: human tumor xenografts in nude mice
Description: (§1) Summary of Experimental Protocol: Human neuroblastoma tumor cells were implanted via subcutaneous injection of 1-10×10^6 cells in nude mice. Tumors were allowed to grow to 200 mg+/−50 mg in size. Drug dosing was initiated, and tumor volume and body weight were recorded twice weekly.
(§2) The mean value for % body weight change and % tumor volume increase for each experimental group was plotted including error bars for the standard error of the mean.
(§3) Other metrics for assessing antitumor effects include: % T/C values as calculated by the following formula:
(§4) [formula] Log Kill=(T−C)/3.32×(Td)

[2] = Efficacy of oral or iv S-(1) in mouse xenografts; assay type: in vivo, nude mice; details: mouse, in vivo, po; nude mice; from efficacy studies and MTD studies; read-out: apparent oral bioavailability
Description: as §1, §2, §3, §4

[3] = Phase 1 Study S-(1)-01, i.v. weekly x3 in a 28-day cycle, safety and pharmacokinetics; assay type: in vivo, patients; details: for AUC0-24 / Cl / Vss / t1/2: Study S-(1)-01 (50:50 Cremophor EL-P/ethanol), i.v., first dose
Description: Both trials have enrolled patients with advanced solid tumors, non-Hodgkin's lymphoma or Hodgkin's lymphoma that have recurred or progressed following at least standard therapy; patients with malignancies for which there is no standard therapy; patients who are not candidates for standard therapy; or patients who have chosen not to pursue standard therapy.
Plasma pharmacokinetics of S-(1) were assessed following the first dose of S-(1) in both studies. Plasma samples were analyzed for S-(1) using a validated LC/MS-MS method.
Treatment cohorts consisted of 3 pts and were expanded to 6 pts in the face of dose-limiting toxicity (DLT); pts could remain on study until the development of progressive disease or an intolerable adverse event. DLT was defined as Gr 4 heme toxicity lasting 7 days; febrile neutropenia, Gr 3 thrombocytopenia with bleeding, Gr 3 elevation of transaminases lasting 7 days or any other Gr 3/4 toxicity other than nausea or vomiting. Results: 25 pts (M:F 16:9, median age 60, range 24-86) were enrolled in 7 dose levels ranging from 7-185 mg/m^2. Pts' cancers included colorectal (6 pts); NSCLC (2); prostate (2); squamous cell carcinoma (2) and 1 pt each with cervical, breast, ovarian, gastric, pancreatic, bladder endometrial, NSCLC, SCLC, glioblastoma, melanoma, renal cell and hepatocellular carcinoma.

[4] = system: bovine microtubule protein (tubulin plus microtubule associated proteins); test: In vitro ED50 MT polymerization study (DAPI fluorescence tubulin assay); assay type: biochemical
Description: In this tubulin binding assay, microtubule protein (MTP) is used as a substrate. The assay contains bovine tubulin plus microtubule associated proteins (MAP). MTP is polymerized into microtubules in the presence of DAPI (4′,6′-diamidino-2-phenylindole), a fluorescent compound. DAPI binds to tubulin; when microtubules are formed and there is an enhancement of fluorescence. The microtubule formation is measured as a function of time, using a fluorescence plate reader. […] The method used is based on the procedure published by Donna M. Barron, et al, “Fluorescence-based high-throughput assay for antimicrotuble drugs” Analytical Biochemistry, 315: 49-56, 2003, which is incorporated by reference in its entirety. The excitation wavelength, in that assay, was set at 370 nm and the emission wavelength was set at 450 nm for the DAPI experiments.
A Bio-Tek FL 600 microplate Fluorescence Reader was used to measure the relative level of fluorescence in the DAPI assay.
Assays were conducted in 96-well plates. […] The final DMSO concentration was 4%. The plates were incubated at 37° C. for 30 minutes and read in a fluorescence plate reader using an excitation wavelength of 360 nm and an emission wavelength of 460 nm. Fluorescence values were corrected for the sample without compound. […] Experiments were done twice in triplicate. Results were subsequently combined and fit to a non-linear regression program.

[5] = weekly study summary, dose of 127.5 mg/m^2

**Q.** For `C=C[C@H]1O[C@H]2CC3OC[C@@]3(OC(C)=O)[C@H]3[C@H](OC(=O)c4ccccc4)[C@]4(C(C)(C)O)C[C@H](OC(=O)[C@H](O)[C@H](CC(C)C)NC(=O)OC(C)(C)C)C(C)=C4[C@H](OC(C)=O)[C@H](O1)[C@]23C` (stereo partly drawn) [S-(1)], which “efficacy / antitumor activity in mouse xenografts (in words)” value [1] is on record?
**A.** Its value is “demonstrated antitumor activity against multiple human tumor xenografts in nude mice, including xenografts that expressed mdr-1 and that were resistant to other taxanes; also recorded: suppressed the growth of multiple human tumor xenografts in nude mice, including xenografts that expressed mdr-1 and that were resistant to other taxanes; also recorded: shows efficacy”.

**Q.** What about the bioavailability [2] of the same compound?
**A.** Its bioavailability is 70 to 80%.

**Q.** And the AUC0-24 ([3]; 14 mg/m^2, plasma)?
**A.** Its AUC0-24 is 457 ± 297 ng·h/mL.

**Q.** And the Cl ([3]; 14 mg/m^2, plasma)?
**A.** Its Cl is 35.5 ± 29.7 L/hr/m^2.

**Q.** And the Vss ([3]; 14 mg/m^2, plasma)?
**A.** Its Vss is 23.2 ± 74.5 L/m^2.

**Q.** And the t1/2 ([3]; 14 mg/m^2, plasma)?
**A.** The t1/2 was 8.4 ± 11.5 h.

**Q.** What about the AUC0-24 ([3]; 28 mg/m^2, plasma) of the same compound?
**A.** Its AUC0-24 is 682 ± 322 ng·h/mL.

**Q.** And the Cl ([3]; 28 mg/m^2, plasma)?
**A.** Its Cl is 43.5 ± 14.5 L/hr/m^2.

**Q.** What about the Vss ([3]; 28 mg/m^2, plasma) of the same compound?
**A.** The Vss was 309 ± 161 L/m^2.

**Q.** What about the t1/2 ([3]; 28 mg/m^2, plasma) of the same compound?
**A.** Its t1/2 is 3.45 ± 1.09 h.

**Q.** What about the AUC0-24 ([3]; 56 mg/m^2, plasma) of the same compound?
**A.** The AUC0-24 was 2070 ± 888 ng·h/mL.

**Q.** And the Cl ([3]; 56 mg/m^2, plasma)?
**A.** The Cl was 28.6 ± 13.2 L/hr/m^2.

**Q.** And the Vss ([3]; 56 mg/m^2, plasma)?
**A.** Its Vss is 216 ± 70 L/m^2.

**Q.** And the t1/2 ([3]; 56 mg/m^2, plasma)?
**A.** The t1/2 was 5.66 ± 3.63 h.

**Q.** And the AUC0-24 ([3]; 85 mg/m^2, plasma)?
**A.** The AUC0-24 was 5970 ± 3900 ng·h/mL.

**Q.** What about the Cl ([3]; 85 mg/m^2, plasma) of the same compound?
**A.** Its Cl is 16.6 ± 9.26 L/hr/m^2.

**Q.** What about the Vss ([3]; 85 mg/m^2, plasma) of the same compound?
**A.** Its Vss is 142 ± 75.6 L/m^2.

**Q.** And the t1/2 ([3]; 85 mg/m^2, plasma)?
**A.** The t1/2 was 5.52 ± 5.26 h.

**Q.** And the AUC0-24 ([3]; 127.5 mg/m^2, plasma)?
**A.** Its AUC0-24 is 4460 ± 2140 ng·h/mL.

**Q.** And the Cl ([3]; 127.5 mg/m^2, plasma)?
**A.** Its Cl is 30.2 ± 11.9 L/hr/m^2.

**Q.** And the Vss ([3]; 127.5 mg/m^2, plasma)?
**A.** Its Vss is 239 ± 116 L/m^2.

**Q.** And the t1/2 ([3]; 127.5 mg/m^2, plasma)?
**A.** The t1/2 was 6.59 ± 2.60 h.

**Q.** And the dose limiting toxicity ([3]; Study S-(1)-01, i.v. weekly ×3, observed in one patient at 185 mg/m^2)?
**A.** Its dose limiting toxicity is “Grade 3 sensory neuropathy; also recorded: Grade 3 peripheral neuropathy”.

**Q.** And the half-life ([3]; both sexes, human, plasma, intravenous, Study S-(1)-01, after first dose, read-out: Plasma t1/2, range over dose groups)?
**A.** The half-life was 3.45 to 8.4 h.

**Q.** And the “dose dependence of AUC (in words)” value ([3]; weekly study)?
**A.** The value was “generally dose linear”.

**Q.** And the clearance [3, 5]?
**A.** Its clearance is 30.2+11.9 L/hr/m^2.

**Q.** And the tm [3, 5]?
**A.** The tm was 8.6+1.3 hrs.

**Q.** What about the anti-neoplastic activity ([3]; weekly study, patients with advanced neoplasms) of the same compound?
**A.** Its anti-neoplastic activity is “Anti-neoplastic activity was seen in a patient with pancreatic cancer”.

**Q.** What about the “drug related adverse events” value ([3]; weekly ×3 then 1 week rest, 7-185 mg/m^2, 25 pts) of the same compound?
**A.** The value was “nausea, vomiting, diarrhea, fatigue, anorexia, rash, anemia and peripheral neuropathy”.

**Q.** What about the “dose that can be safely administered” value ([3]; weekly×3 in heavily pre-treated patients) of the same compound?
**A.** Its value is “up to 185 mg/m^2”.

**Q.** And the “ED50 Compound/ED50 Paclitaxel” value ([4]; ratio of tubulin polymerization ED50 values)?
**A.** Its value is 0.53.

**Q.** What about the EC50 ([4]; tubulin polymerization, 37° C. 30 minutes, percent of maximum assembly at 25 μM paclitaxel) of the same compound?
**A.** The EC50 was 1580 ± 460 nM.
